Converted amounts (≈) assume the structure as drawn. Read-outs that look alike come from different tables or passages of the source.
Tests used:
[1] = system: Staphylococcus aureus methicillin resistant; assay: Antibacterial activity against clinically isolated strains, MIC; format: cell-based; conditions: methicillin resistant, 7 clinical isolates, broth microdilution test
[2] = system: Staphylococcus aureus methicillin susceptible; assay: as above; format: cell-based; conditions: methicillin susceptible, 42 clinical isolates, broth microdilution test
Klebsiella pneumoniae = assay: as above; format: cell-based; conditions: 10 clinical isolates, broth microdilution test
[3] = system: Salmonella typhimurium ATCC 14028; assay: Antibacterial activity, MIC; format: cell-based; conditions: Salmonella enterica; ATCC 14028; agar two-fold dilution, 37° C., 20 hours; read-out: MIC
Procedure, shortened: (§1)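 MIC by two-fold serial dilution in Mueller-Hinton agar; inoculum 2 μl at 10^7 CFU/ml; 37 °C, 20 h.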

[4] = system: Pseudomonas aeruginosa ATCC 25619; assay: Antibacterial activity, MIC; format: cell-based; conditions: ATCC25619, ATCC 25619, agar two-fold dilution, 37° C., 20 hours, read-out: MIC
Procedure, shortened: as §1

[5] = system: Serratia marcescens ATCC 27117; assay: Antibacterial activity, MIC; format: cell-based; conditions: ATCC27117, ATCC 27117, agar two-fold dilution, 37° C., 20 hours, read-out: MIC
Procedure, shortened: as §1

[6] = system: Pseudomonas aeruginosa ATCC 27853; assay: Antibacterial activity, MIC; format: cell-based; conditions: ATCC27853, ATCC 27853, agar two-fold dilution, 37° C., 20 hours, read-out: MIC
Procedure, shortened: as §1

[7] = system: Providencia rettgeri ATCC 9250; assay: Antibacterial activity, MIC; format: cell-based; conditions: ATCC9250, agar two-fold dilution, 37° C., 20 hours
Procedure, shortened: as §1

[8] = system: Streptococcus faecalis ATCC 29212; assay: Antibacterial activity, MIC; format: cell-based; conditions: Enterococcus faecalis, ATCC29212; ATCC 29212; agar two-fold dilution, 37° C., 20 hours; read-out: MIC
Procedure, shortened: as §1

[9] = system: Shigella sonnei ATCC 11060; assay: Antibacterial activity, MIC; format: cell-based; conditions: ATCC11060, ATCC 11060, agar two-fold dilution, 37° C., 20 hours, read-out: MIC
Procedure, shortened: as §1

[10] = system: Escherichia coli ATCC 10536; assay: Antibacterial activity, MIC; format: cell-based; conditions: ATCC10536, agar two-fold dilution, 37° C., 20 hours
Procedure, shortened: as §1

[11] = system: Staphylococcus aureus ATCC 10537; assay: Antibacterial activity, MIC; format: cell-based; conditions: ATCC10537, ATCC 10537, agar two-fold dilution, 37° C., 20 hours, read-out: MIC
Procedure, shortened: as §1

[12] = system: Klebsiella pneumoniae ATCC 10031; assay: Antibacterial activity, MIC; format: cell-based; conditions: ATCC10031, ATCC 10031, agar two-fold dilution, 37° C., 20 hours, read-out: MIC
Procedure, shortened: as §1

[13] = system: Staphylococcus epidermidis ATCC 12228; assay: Antibacterial activity, MIC; format: cell-based; conditions: ATCC12228, ATCC 12228, agar two-fold dilution, 37° C., 20 hours, read-out: MIC
Procedure, shortened: as §1

[14] = system: Pseudomonas aeruginosa ATCC 10145; assay: Antibacterial activity, MIC; format: cell-based; conditions: ATCC10145, ATCC 10145, agar two-fold dilution, 37° C., 20 hours, read-out: MIC
Procedure, shortened: as §1

[15] = system: Enterobacter aerogenes ATCC 29751; assay: Antibacterial activity, MIC; format: cell-based; conditions: Klebsiella aerogenes, ATCC29751; ATCC 29751; agar two-fold dilution, 37° C., 20 hours; read-out: MIC
Procedure, shortened: as §1

[16] = system: Morganella morganii ATCC 8076h; assay: Antibacterial activity, MIC; format: cell-based; conditions: ATCC8076H, agar two-fold dilution, 37° C., 20 hours
Procedure, shortened: as §1

[17] = system: Staphylococcus aureus ATCC 6538p; assay: Antibacterial activity, MIC; format: cell-based; conditions: ATCC6538P, ATCC 6538p, agar two-fold dilution, 37° C., 20 hours, read-out: MIC
Procedure, shortened: as §1

[18] = system: Enterobacter cloacae ATCC 27508; assay: Antibacterial activity, MIC; format: cell-based; conditions: ATCC27508, ATCC 27508, agar two-fold dilution, 37° C., 20 hours, read-out: MIC
Procedure, shortened: as §1

[19] = system: Proteus vulgaris ATCC 6059; assay: Antibacterial activity, MIC; format: cell-based; conditions: ATCC6059, ATCC 6059, agar two-fold dilution, 37° C., 20 hours, read-out: MIC
Procedure, shortened: as §1

[20] = system: Acinetobacter calcoaceticus ATCC 15473; assay: Antibacterial activity, MIC; format: cell-based; conditions: ATCC15473, ATCC 15473, agar two-fold dilution, 37° C., 20 hours, read-out: MIC
Procedure, shortened: as §1

[21] = system: Shigella flexneri ATCC 11836; assay: Antibacterial activity, MIC; format: cell-based; conditions: ATCC11836, agar two-fold dilution, 37° C., 20 hours
Procedure, shortened: as §1

[22] = system: Bacillus megaterium ATCC 9885; assay: Antibacterial activity, MIC; format: cell-based; conditions: Priestia megaterium, ATCC9885; ATCC 9885; agar two-fold dilution, 37° C., 20 hours; read-out: MIC
Procedure, shortened: as §1

[23] = system: Citrobacter freundii ATCC 8090; assay: Antibacterial activity, MIC; format: cell-based; conditions: ATCC8090, ATCC 8090, agar two-fold dilution, 37° C., 20 hours, read-out: MIC
Procedure, shortened: as §1

[24] = system: Proteus mirabilis ATCC 25933; assay: Antibacterial activity, MIC; format: cell-based; conditions: ATCC25933, ATCC 25933, agar two-fold dilution, 37° C., 20 hours, read-out: MIC
Procedure, shortened: as §1

[25] = system: Bacillus cereus ATCC 11778; assay: Antibacterial activity, MIC; format: cell-based; conditions: ATCC11778, ATCC 11778, agar two-fold dilution, 37° C., 20 hours, read-out: MIC
Procedure, shortened: as §1

[26] = system: Micrococcus luteus ATCC 9341; assay: Antibacterial activity, MIC; format: cell-based; conditions: ATCC9341, ATCC 9341, agar two-fold dilution, 37° C., 20 hours, read-out: MIC
Procedure, shortened: as §1

[27] = system: Escherichia coli ATCC 25922; assay: Antibacterial activity, MIC; format: cell-based; conditions: ATCC25922, agar two-fold dilution, 37° C., 20 hours
Procedure, shortened: as §1

Escherichia coli = assay: Antibacterial activity against clinically isolated strains, MIC; format: cell-based; conditions: 38 clinical isolates, broth microdilution test
Pseudomonas aeruginosa = assay: as above; format: cell-based; conditions: 54 clinical isolates, broth microdilution test
[28] = In-vivo absorbency (plasma concentrations & pharmacokinetic parameters); set-up: species or system SD rat (male); conditions: plasma, SD male rat, iv 20 mg/kg, read-out: Plasma Conc.
[29] = as above; set-up: species or system SD rat (male); conditions: plasma, SD male rat, iv 20 mg/kg; for half-life: rat, iv, 20 mg/kg
Text: The blood samples from the femoral vein of the rats were taken every hour after administration, and analyzed by bio-assay(agar well method).
Tested animal: SD male Rat (220~340 g)

SMILES	MIC [3] [µg/mL]	MIC [4] [µg/mL]	MIC [5] [µg/mL]	MIC [6] [µg/mL]	MIC [7] [µg/mL]	MIC [8] [µg/mL]	MIC [9] [µg/mL]	MIC [10] [µg/mL]	MIC [11] [µg/mL]	MIC [12] [µg/mL]	MIC [13] [µg/mL]	MIC [14] [µg/mL]	MIC [15] [µg/mL]	MIC [16] [µg/mL]	MIC [17] [µg/mL]	MIC [18] [µg/mL]	MIC [19] [µg/mL]	MIC [20] [µg/mL]	MIC [21] [µg/mL]	MIC [22] [µg/mL]	further results
CC(O/N=C(\C(=O)NC1C(=O)N2C(C(=O)[O-])=C(CSc3nc(N)cc(N)[n+]3N)CSC12)c1csc(N)n1)C(=O)O (stereo not drawn) [Compound I-14]	0.13 (≈ 0.213 µM)	1 (≈ 1.64 µM)	0.031 (≈ 0.0508 µM)	1 (≈ 1.64 µM)	≤ 0.008	> 128	0.016 (≈ 0.0262 µM)	0.031 (≈ 0.0508 µM)	2 (≈ 3.28 µM)	0.031 (≈ 0.0508 µM)	1 (≈ 1.64 µM)	2 (≈ 3.28 µM)	0.5 (≈ 0.819 µM)	≤ 0.008	4 (≈ 6.55 µM)	≤ 0.008	0.031 (≈ 0.0508 µM)	2 (≈ 3.28 µM)	0.031 (≈ 0.0508 µM)	0.5 (≈ 0.819 µM)	MIC50 [1]: > 128 µg/mL; MIC90 ([1]; read-out: MIC 90%): > 128 µg/mL; MIC50 [2]: 4 µg/mL (≈ 6.55 µM); MIC90 ([2]; read-out: MIC 90%): 4 µg/mL (≈ 6.55 µM); MIC50 (Klebsiella pneumoniae): 0.031 µg/mL (≈ 0.0508 µM); MIC90 (Klebsiella pneumoniae; read-out: MIC 90%): 0.063 µg/mL (≈ 0.103 µM); MIC [23]: 0.031 µg/mL (≈ 0.0508 µM); MIC [24]: 0.031 µg/mL (≈ 0.0508 µM); MIC [25]: 64 µg/mL (≈ 105 µM); MIC [26]: 0.5 µg/mL (≈ 0.819 µM); MIC [27]: 0.031 µg/mL (≈ 0.0508 µM); MIC50 (Escherichia coli): 0.031 µg/mL (≈ 0.0508 µM); MIC90 (Escherichia coli): 0.063 µg/mL (≈ 0.103 µM); MIC50 (Pseudomonas aeruginosa): 1 µg/mL (≈ 1.64 µM); MIC90 (Pseudomonas aeruginosa; read-out: MIC 90%): 4 µg/mL (≈ 6.55 µM)
CC[n+]1c(N)cc(N)nc1SCC1=C(C(=O)[O-])N2C(=O)C(NC(=O)/C(=N\OCC(=O)O)c3csc(N)n3)C2SC1 (stereo not drawn) [Compound I-8]	0.063 (≈ 0.103 µM)	2 (≈ 3.28 µM)	0.031 (≈ 0.0508 µM)	2 (≈ 3.28 µM)	0.016 (≈ 0.0262 µM)	> 128	0.031 (≈ 0.0508 µM)	0.031 (≈ 0.0508 µM)	2 (≈ 3.28 µM)	0.016 (≈ 0.0262 µM)	1 (≈ 1.64 µM)	4 (≈ 6.56 µM)	1 (≈ 1.64 µM)	≤ 0.008	4 (≈ 6.56 µM)	≤ 0.008	0.016 (≈ 0.0262 µM)	8 (≈ 13.1 µM)	0.016 (≈ 0.0262 µM)	0.5 (≈ 0.82 µM)	concentration at 1 min ([28]; 1 min): 121000 ng/mL; concentration at 2.5 min ([28]; 2.5 min): 92000 ng/mL; concentration at 5 min ([28]; 5 min): 64000 ng/mL; concentration at 10 min ([28]; 10 min): 48000 ng/mL; concentration at 20 min ([28]; 20 min): 36000 ng/mL; concentration at 40 min ([28]; 40 min): 15000 ng/mL; concentration at 1 h ([29]; 60 min, read-out: Plasma Conc.): 8700 ng/mL; concentration at 2 h ([29]; 120 min, read-out: Plasma Conc.): 2700 ng/mL; AUC ([29]; two compartment model): 43400 ng·h/mL; half-life ([29]; two compartment model, read-out: T1/2 (α)): 6 min; half-life ([29]; two compartment model, read-out: T1/2 (β)): 32 min; MIC [23]: 0.031 µg/mL (≈ 0.0508 µM); MIC [24]: 0.031 µg/mL (≈ 0.0508 µM); MIC [25]: 64 µg/mL (≈ 105 µM); MIC [26]: 0.13 µg/mL (≈ 0.213 µM); MIC [27]: 0.031 µg/mL (≈ 0.0508 µM)
C=CC[n+]1c(N)cc(N)nc1SCC1=C(C(=O)[O-])N2C(=O)C(NC(=O)/C(=N\OCC(=O)O)c3csc(N)n3)C2SC1 (stereo not drawn) [Compound I-9]	0.13 (≈ 0.209 µM)	2 (≈ 3.22 µM)	0.063 (≈ 0.101 µM)	4 (≈ 6.43 µM)	≤ 0.008	> 128	0.063 (≈ 0.101 µM)	0.031 (≈ 0.0499 µM)	2 (≈ 3.22 µM)	0.031 (≈ 0.0499 µM)	1 (≈ 1.61 µM)	16 (≈ 25.7 µM)	1 (≈ 1.61 µM)	≤ 0.008	4 (≈ 6.43 µM)	≤ 0.008	0.031 (≈ 0.0499 µM)	8 (≈ 12.9 µM)	0.031 (≈ 0.0499 µM)	0.25 (≈ 0.402 µM)	MIC [23]: 0.063 µg/mL (≈ 0.101 µM); MIC [24]: 0.031 µg/mL (≈ 0.0499 µM); MIC [25]: 64 µg/mL (≈ 103 µM); MIC [26]: 0.25 µg/mL (≈ 0.402 µM); MIC [27]: 0.031 µg/mL (≈ 0.0499 µM)

Reference: patent US5202315A, “Cephalosporin compounds” (Lucky, Ltd., priority 1989, dated 1993)
